# Measured values as given in US11459336B2, “Pyrazine carbamates and their use as GluN2B receptor modulators” (JANSSEN PHARMACEUTICA NV, priority 2019, dated 2022).
# Target: T1, human GluN1/GluN2B NMDA receptors (Homo sapiens, UniProt Q13224)
# T1 construct: expressed in transfected cells
# Experiment: Calcium flux (FLIPR) assay on cloned human GluN1/GluN2B ion channels expressed in mammalian cells, standard assay
# Type: cell-based
# Conditions: glutamate ~EC40, 10 μM glycine, stable cell line with Tet-On induced expression
# Procedure: NMDA receptors are ion channels that are highly permeable to Ca^2+ ions, rendering it possible to monitor NMDA receptor function using cell-based calcium flux assay. In this assay, co-agonists glutamate and glycine are added to cells heterologously expressing human GluN1/GluN2B NMDA receptors to initiate cellular Ca^2+ influx. The time course of the changes in intracellular calcium is measured using a fluorescent dye and a FLIPR (Fluorometric Imaging Plate Reader) device.
# Twenty four hours before measurements, the expression of the NMDA receptors in the stable cell line is induced with Tet-On inducible system in the presence of a non-selective NMDA receptor blocker. On the day of the experiment, cell culture media is carefully washed and the cells are loaded with Calcium 5 Dye Kit (Molecular Devices) in dye loading buffer containing 137 mM NaCl, 4 mM KCl, 2 mM CaCl2, 0.5 mM MgCl2 (standard assay) or 1.5 mM MgCl2 (HTS assay), 10 mM HEPES and 5 mM D-glucose; pH 7.4. After 1 h incubation at the room temperature, the dye is washed away with the assay buffer (137 mM NaCl (standard assay) or 150 mM (HTS assay), 4 mM KCl (standard assay) or 3 mM (HTS assay), 2 mM CaCl2, 0.01 mM EDTA, 10 mM HEPES and 5 mM D-glucose; pH 7.4) In the FLIPR TETRA reader, various concentrations of the test compounds are added to the cells for 5 min while fluorescence is monitored to detect potential agonist activity. Next, co-agonists, glutamate and glycine are added for another 5 minutes. The concentration of glutamate corresponding to ˜EC40 (standard assay) or EC40 (HTS assay) is used to maximize the assay's signal window and ability to detect NMDA receptor antagonists and negative allosteric modulators. A saturating concentration (10 μM) of glycine is also present in the assay. A non-selective NMDA receptor antagonist, (+)MK-801 is used as a positive control for antagonist activity. The fluorescent signal in the presence of test compounds is quantified and normalized to the signal defined by the appropriate control wells.
# T1 sequence (Q13224 27-1484, other chains not shown): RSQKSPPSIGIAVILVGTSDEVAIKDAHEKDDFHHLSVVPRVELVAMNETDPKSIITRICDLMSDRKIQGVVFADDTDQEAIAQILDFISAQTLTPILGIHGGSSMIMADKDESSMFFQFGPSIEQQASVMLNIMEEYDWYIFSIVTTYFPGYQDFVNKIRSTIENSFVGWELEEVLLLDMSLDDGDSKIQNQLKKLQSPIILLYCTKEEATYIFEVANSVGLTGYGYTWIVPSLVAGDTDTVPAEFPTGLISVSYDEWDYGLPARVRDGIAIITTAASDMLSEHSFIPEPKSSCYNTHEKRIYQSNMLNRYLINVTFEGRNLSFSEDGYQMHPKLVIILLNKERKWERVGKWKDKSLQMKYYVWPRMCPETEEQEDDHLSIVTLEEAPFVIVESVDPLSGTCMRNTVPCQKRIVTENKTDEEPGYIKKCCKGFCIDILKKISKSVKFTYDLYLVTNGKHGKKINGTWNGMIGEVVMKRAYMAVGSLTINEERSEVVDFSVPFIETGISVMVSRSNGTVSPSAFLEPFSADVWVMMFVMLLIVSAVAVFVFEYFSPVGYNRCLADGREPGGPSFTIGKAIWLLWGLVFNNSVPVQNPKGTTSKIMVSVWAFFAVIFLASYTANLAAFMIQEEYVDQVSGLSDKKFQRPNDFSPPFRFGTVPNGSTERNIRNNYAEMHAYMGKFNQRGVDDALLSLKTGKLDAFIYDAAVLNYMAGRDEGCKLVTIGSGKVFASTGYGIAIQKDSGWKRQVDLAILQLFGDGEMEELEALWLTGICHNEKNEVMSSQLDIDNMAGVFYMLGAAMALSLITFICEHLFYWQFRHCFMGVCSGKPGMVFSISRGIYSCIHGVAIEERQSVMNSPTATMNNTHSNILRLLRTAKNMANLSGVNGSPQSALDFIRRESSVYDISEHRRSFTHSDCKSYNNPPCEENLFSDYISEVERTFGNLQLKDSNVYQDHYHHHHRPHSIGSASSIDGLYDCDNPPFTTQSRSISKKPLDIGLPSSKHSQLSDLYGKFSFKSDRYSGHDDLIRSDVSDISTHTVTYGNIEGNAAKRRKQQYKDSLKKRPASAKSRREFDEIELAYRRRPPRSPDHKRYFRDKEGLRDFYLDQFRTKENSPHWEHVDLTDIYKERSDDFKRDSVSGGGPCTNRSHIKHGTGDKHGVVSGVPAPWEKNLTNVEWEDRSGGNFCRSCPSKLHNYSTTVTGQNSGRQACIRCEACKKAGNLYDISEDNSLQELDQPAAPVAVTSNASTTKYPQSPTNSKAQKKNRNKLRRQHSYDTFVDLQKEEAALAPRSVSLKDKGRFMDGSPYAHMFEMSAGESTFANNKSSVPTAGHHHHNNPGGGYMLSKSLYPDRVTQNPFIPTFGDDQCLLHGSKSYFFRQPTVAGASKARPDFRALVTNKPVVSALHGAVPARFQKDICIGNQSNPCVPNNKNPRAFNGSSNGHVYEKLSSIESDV
row,Compound,IC50 [nM]
1,"CC1(C)CN(Cc2cncc(-c3ccc(F)c(C(F)F)c3)n2)C(=O)O1 [Example 4, 3-[[6-[3-(Difluoromethyl)-4-fluoro-phenyl]pyrazin-2-yl]methyl]-5,5-dimethyl-oxazolidin-2-one]",1360
2,"C[C@@H]1CN(Cc2cncc(-c3ccc(F)c(C(F)F)c3)n2)C(=O)O1 [Example 5, (5R)-3-[[6-[3-(Difluoromethyl)-4-fluoro-phenyl]pyrazin-2-yl]methyl]-5-methyl-oxazolidin-2-one]",29
3,"C[C@H]1CN(Cc2cncc(-c3ccc(F)c(C(F)F)c3)n2)C(=O)O1 [Example 6, (5S)-3-[[6-[3-(Difluoromethyl)-4-fluoro-phenyl]pyrazin-2-yl]methyl]-5-methyl-oxazolidin-2-one]",60
4,"O=C1OCCCN1Cc1cncc(-c2ccc(F)c(C(F)F)c2)n1 [Example 9, 3-[[6-[3-(Difluoromethyl)-4-fluoro-phenyl]pyrazin-2-yl]methyl]-1,3-oxazinan-2-one]",65
5,"CC1(C)CN(Cc2cncc(-c3ccc(F)c(OC(F)F)c3)n2)C(=O)O1 [Example 17, 3-[[6-[3-(Difluoromethoxy)-4-fluoro-phenyl]pyrazin-2-yl]methyl]-5,5-dimethyl-oxazolidin-2-one]",1140
6,"C[C@@H]1COC(=O)N1Cc1cncc(-c2ccc(F)c(OC(F)F)c2)n1 [Example 18, (4R)-3-[[6-[3-(Difluoromethoxy)-4-fluoro-phenyl]pyrazin-2-yl]methyl]-4-methyl-oxazolidin-2-one]",44
7,"C[C@H]1COC(=O)N1Cc1cncc(-c2ccc(F)c(OC(F)F)c2)n1 [Example 19, (4S)-3-[[6-[3-(Difluoromethoxy)-4-fluoro-phenyl]pyrazin-2-yl]methyl]-4-methyl-oxazolidin-2-one]",291
8,"C[C@@H]1CN(Cc2cncc(-c3ccc(F)c(OC(F)F)c3)n2)C(=O)O1 [Example 20, (5R)-3-[[6-[3-(Difluoromethoxy)-4-fluoro-phenyl]pyrazin-2-yl]methyl]-5-methyl-oxazolidin-2-one]",29
9,"C[C@H]1CN(Cc2cncc(-c3ccc(F)c(OC(F)F)c3)n2)C(=O)O1 [Example 21, (5S)-3-[[6-[3-(Difluoromethoxy)-4-fluoro-phenyl]pyrazin-2-yl]methyl]-5-methyl-oxazolidin-2-one]",20
10,"O=C1OCCCN1Cc1cncc(-c2ccc(F)c(OC(F)F)c2)n1 [Example 22, 3-[[6-[3-(Difluoromethoxy)-4-fluoro-phenyl]pyrazin-2-yl]methyl]-1,3-oxazinan-2-one]",17
11,"Cc1ncc(-c2ccc(F)c(OC(F)F)c2)nc1CN1C(=O)OC[C@H]1C [Example 24, (4R)-3-[[6-[3-(Difluoromethoxy)-4-fluoro-phenyl]-3-methyl-pyrazin-2-yl]methyl]-4-methyl-oxazolidin-2-one]",78
12,"Cc1ncc(-c2ccc(F)c(OC(F)F)c2)nc1CN1C(=O)OC[C@@H]1C [Example 25, (4S)-3-[[6-[3-(Difluoromethoxy)-4-fluoro-phenyl]-3-methyl-pyrazin-2-yl]methyl]-4-methyl-oxazolidin-2-one]",388
13,"C[C@@H]1CN(Cc2cncc(-c3ccc(Cl)c(OC(F)F)c3)n2)C(=O)O1 [Example 31, (5R)-3-[[6-[4-Chloro-3-(difluoromethoxy)phenyl]pyrazin-2-yl]methyl]-5-methyl-oxazolidin-2-one]",20

# Next, values leading:
row,IC50 [nM],Compound
1,195,"O=C1OCCN1Cc1cncc(-c2ccc(F)c(C(F)F)c2)n1 [Example 1, 3-[[6-[3-(Difluoromethyl)-4-fluoro-phenyl]pyrazin-2-yl]methyl]oxazolidin-2-one]"
2,73,"O=C1OCCN1Cc1cncc(-c2ccc(F)c(OC(F)F)c2)n1 [Example 2, 3-[[6-[3-(Difluoromethoxy)-4-fluoro-phenyl]pyrazin-2-yl]methyl]oxazolidin-2-one]"
3,288,"C[C@@H]1COC(=O)N1Cc1cncc(-c2ccc(F)c(C(F)F)c2)n1 [Example 7, (4R)-3-[[6-[3-(Difluoromethyl)-4-fluoro-phenyl]pyrazin-2-yl]methyl]-4-methyl-oxazolidin-2-one]"
4,37,"Cc1ncc(-c2ccc(F)c(C(F)F)c2)nc1CN1CC2(CC2)OC1=O [Example 10, 5-[[6-[3-(Difluoromethyl)-4-fluoro-phenyl]-3-methyl-pyrazin-2-yl]methyl]-7-oxa-5-azaspiro[2.4]heptan-6-one]"
5,605,"Cc1ncc(-c2ccc(F)c(C(F)F)c2)nc1CN1C(=O)OC[C@@H]1C [Example 12, (4S)-3-[[6-[3-(Difluoromethyl)-4-fluoro-phenyl]-3-methyl-pyrazin-2-yl]methyl]-4-methyl-oxazolidin-2-one]"
6,45,"Cc1ncc(-c2ccc(F)c(C(F)F)c2)nc1CN1C[C@@H](C)OC1=O [Example 13, (5R)-3-[[6-[3-(Difluoromethyl)-4-fluoro-phenyl]-3-methyl-pyrazin-2-yl]methyl]-5-methyl-oxazolidin-2-one]"
7,50,"Cc1ncc(-c2ccc(F)c(C(F)F)c2)nc1CN1C[C@H](C)OC1=O [Example 14, (5S)-3-[[6-[3-(Difluoromethyl)-4-fluoro-phenyl]-3-methyl-pyrazin-2-yl]methyl]-5-methyl-oxazolidin-2-one]"
8,19,"O=C1OC2(CC2)CN1Cc1cncc(-c2ccc(F)c(OC(F)F)c2)n1 [Example 16, 5-[[6-[3-(Difluoromethoxy)-4-fluoro-phenyl]pyrazin-2-yl]methyl]-7-oxa-5-azaspiro[2.4]heptan-6-one]"
9,66,"Cc1ncc(-c2ccc(F)c(OC(F)F)c2)nc1CN1CC2(CC2)OC1=O [Example 23, 5-[[6-[3-(Difluoromethoxy)-4-fluoro-phenyl]-3-methyl-pyrazin-2-yl]methyl]-7-oxa-5-azaspiro[2.4]heptan-6-one]"
10,52,"Cc1ncc(-c2ccc(F)c(OC(F)F)c2)nc1CN1C[C@@H](C)OC1=O [Example 26, (5R)-3-[[6-[3-(Difluoromethoxy)-4-fluoro-phenyl]-3-methyl-pyrazin-2-yl]methyl]-5-methyl-oxazolidin-2-one]"
11,48,"Cc1ncc(-c2ccc(F)c(OC(F)F)c2)nc1CN1C[C@H](C)OC1=O [Example 27, (5S)-3-[[6-[3-(Difluoromethoxy)-4-fluoro-phenyl]-3-methyl-pyrazin-2-yl]methyl]-5-methyl-oxazolidin-2-one]"
12,39,"Cc1ncc(-c2ccc(F)c(OC(F)F)c2)nc1CN1CCCOC1=O [Example 28, 3-[[6-[3-(Difluoromethoxy)-4-fluoro-phenyl]-3-methyl-pyrazin-2-yl]methyl]-1,3-oxazinan-2-one]"
13,19,"O=C1OC2(CC2)CN1Cc1cncc(-c2ccc(Cl)c(OC(F)F)c2)n1 [Example 29, 5-[[6-[4-Chloro-3-(difluoromethoxy)phenyl]pyrazin-2-yl]methyl]-7-oxa-5-azaspiro[2.4]heptan-6-one]"
14,669,"CC1(C)CN(Cc2cncc(-c3ccc(Cl)c(OC(F)F)c3)n2)C(=O)O1 [Example 30, 3-[[6-[4-Chloro-3-(difluoromethoxy)phenyl]pyrazin-2-yl]methyl]-5,5-dimethyl-oxazolidin-2-one]"
15,20,"C[C@H]1CN(Cc2cncc(-c3ccc(Cl)c(OC(F)F)c3)n2)C(=O)O1 [Example 32, (5S)-3-[[6-[4-Chloro-3-(difluoromethoxy)phenyl]pyrazin-2-yl]methyl]-5-methyl-oxazolidin-2-one]"
